This is an account of results in patent publication US20250346606A1, “CAMPTOTHECIN COMPOUND, PREPARATION METHOD THEREFOR, AND APPLICATION THEREOF” (SICHUAN KELUN-BIOTECH BIOPHARMACEUTICAL CO., LTD., priority 2021, published 2025).

Common to all, as to type: cell-based, Human
The subject of one test is HCC70 cells. Description: Inhibitory effect of compounds on HCC70 cell proliferation. Particulars: read-out: IC50, inhibitory activity on HCC70 cell proliferation. The method, then: (1) Cell plating: First, tumor cells HCC70 were cultured in corresponding medium, then digested with trypsin, centrifuged, resuspended, and counted, and the cells were adjusted to an appropriate concentration for plating.
(§1) Co-incubation of the compound of the present disclosure and tumor cells: after the cells adhered to the wall, the medium was removed, and the diluted bioactive molecule (the compound of the present disclosure) was added to the wells of the above plate, and incubated for 72 h.
(§2) In vitro cell viability detection: After the incubation, 50 μL of Cell Counting-Lite™ 2.0 reagent (Vazyme/Novazyme) was added to each well, shaken and mixed well in the dark, reacted for 10 minutes, and then the detection was carried out with a microplate reader (manufacturer: BMG, Model: PHERAStar-FS) for reading. The background RLU was obtained by using cell-free medium (with Cell Counting-Lite™), and the vehicle RLU was obtained by using cell-containing medium (with Cell Counting-Lite™). Cell inhibition rate=1−(sample RLU−background RLU)/(solvent RLU−background RLU)×100%. According to the four-parameter model fitting curve, the half maximal inhibitory concentration (IC50) of the compound was calculated, and the detection results were shown in Table 16.

A further test has as its system A549 cells. Description: Inhibitory effect of compounds on A549 cell proliferation. As to conditions: read-out: IC50, inhibitory activity on A549 cell proliferation.
The subject of another test is Hela cells. Description: Inhibitory effect of compounds on Hela cell proliferation. Particulars: read-out: IC50, inhibitory activity on Hela cell proliferation. The method, then: (1) Cell plating: First, tumor cells Hela were cultured in corresponding medium, then digested with trypsin, centrifuged, resuspended, and counted, and the cells were adjusted to an appropriate concentration for plating.
as §1
as §2, with “14.” for “16.”

The next test concerns NCI-N87 cells. Description: Inhibitory effect of compounds on NCI-N87 cell proliferation. The gist of the method:
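Adherent NCI-N87 cells were exposed to compound dilutions for 72 h. Viability measured by Cell Counting-Lite 2.0 luminescence, with inhibition calculated against vehicle and cell-free background RLU. IC50 from four-parameter fit.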

The subject of the next test is NCI-H358 cells. Description: Inhibitory effect of compounds on NCI-H358 cell proliferation. The procedure, abridged:
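Adherent NCI-H358 cells were exposed to compound for 72 h, then viability was read by luminescence (Cell Counting-Lite 2.0). Inhibition calculated from RLU relative to cell-free background and vehicle wells; IC50 from a four-parameter fit.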

Another test concerns HCC1806 cells. Description: Inhibitory effect of compounds on HCC1806 cell proliferation. The procedure, abridged:
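HCC1806 cells, once adhered, were exposed to diluted compound for 72 h. Viability was read by Cell Counting-Lite 2.0 luminescence, inhibition calculated against vehicle and cell-free background RLU, and IC50 fitted with a four-parameter model.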

[1] abbreviates: Homo sapiens, NCI-N87, 72 h, read-out: IC50, inhibitory activity on NCI-N87 cell proliferation, NCI-N87 human gastric cancer cells, 72 h incubation, Cell Counting-Lite 2.0.
The mark [2] stands for this setting: Homo sapiens, NCI-H358, 72 h, read-out: IC50, inhibitory activity on NCI-H358 cell proliferation, NCI-H358 human non-small cell lung cancer cells, 72 h incubation, Cell Counting-Lite 2.0.
Where [3] appears, read: Homo sapiens, HCC1806, 72 h, read-out: IC50, inhibitory activity on HCC1806 cell proliferation, HCC1806 human breast squamous carcinoma cells, 72 h incubation, Cell Counting-Lite 2.0.

Where two headings read alike, the source gives them in different places.

As for `CC#C[C@@H](O)C(=O)N[C@H]1CCc2c(C)c(F)cc3nc4c(c1c23)Cn1c-4cc2c(c1=O)COC(=O)[C@]2(O)CC` [Example 1 (1-1-A), (R)—N-((1S,9S)-9-ethyl-5-fluoro-9-hydroxy-4-methyl-10,13-dioxo-2,3,9,10,13,15-hexahydro-1H,12H-benzo[de]pyrano[3′,4′:6,7]indolizino[1,2-b]quinolin-1-yl)-2-hydroxypent-3-yneamide], the IC50 in the test with HCC70 cells (Homo sapiens, HCC70, 72 h) stood at 225 nM; in the test on A549 cells (Homo sapiens, A549, 72 h), 66.6 nM; in the test on Hela cells (Homo sapiens, HeLa, 72 h), 4.57 nM; with NCI-N87 cells (setting [1]), 4.58 nM; in the test with NCI-H358 cells (setting [2]), 65.2 nM.
Take `CC[C@@]1(O)C(=O)OCc2c1cc1n(c2=O)Cc2c-1nc1cc(Cl)c(C)c3c1c2[C@@H](NC(=O)[C@@H](O)C1CC1)CC3` [Example 5 (2-12-A), (2S)—N-((1S,9S)-5-chloro-9-ethyl-9-hydroxy-4-methyl-10,13-dioxo-2,3,9,10,13,15-hexahydro-1H,12H-benzo[de]pyrano[3′,4′:6,7]indolizino[1,2-b]quinolin-1-yl)-2-cyclopropyl-2-hydroxyacetamide]: the IC50 is 171 nM with HCC70 cells (Homo sapiens, HCC70, 72 h); 6.96 nM in the test with A549 cells (Homo sapiens, A549, 72 h); 1.4 nM with HCC1806 cells (setting [3]); 13.2 nM in the test on Hela cells (Homo sapiens, HeLa, 72 h); 4.91 nM in the test with NCI-N87 cells (setting [1]); 17.6 nM in the test on NCI-H358 cells (setting [2]).
Regarding `CC[C@@]1(O)C(=O)OCc2c1cc1n(c2=O)Cc2c-1nc1cc(Cl)c(C)c3c1c2[C@H](NC(=O)[C@@H](O)C1CC1)CC3` [Example 5 (2-12-B), (2S)—N-((1R,9S)-5-chloro-9-ethyl-9-hydroxy-4-methyl-10,13-dioxo-2,3,9,10,13,15-hexahydro-1H,12H-benzo[de]pyrano[3′,4′:6,7]indolizino[1,2-b]quinolin-1-yl)-2-cyclopropyl-2-hydroxyacetamide], the IC50 in the test with HCC70 cells (Homo sapiens, HCC70, 72 h) is 176 nM; in the test on A549 cells (Homo sapiens, A549, 72 h), 5.52 nM; in the test on HCC1806 cells (setting [3]) it was 1.07 nM; in the test on Hela cells (Homo sapiens, HeLa, 72 h), 16.7 nM; with NCI-N87 cells (setting [1]) it was 4.97 nM; in the test on NCI-H358 cells (setting [2]), 15.8 nM.
For “(2S)—N-((1S,9S)-5-chloro-9-ethyl-9-hydroxy-4-methyl-10,13-dioxo-2,3,9,10,13,15-hexahydro-1H,12H-benzo[de]pyrano[3′,4′:6,7]indolizino[1,2-b]quinolin-1-yl)-2-hydroxypropylamine [Example 4 (2-7-A)]”, the IC50 was 151 nM with HCC70 cells (HCC70 human breast cancer cells, 72 h incubation, Cell Counting-Lite 2.0); 6.97 nM in the test with A549 cells (A549 human lung cancer cells, 72 h incubation, Cell Counting-Lite 2.0); 1.25 nM in the test with HCC1806 cells (HCC1806 human breast squamous carcinoma cells, 72 h incubation, Cell Counting-Lite 2.0, read-out: IC50, inhibitory activity on HCC1806 cell proliferation); 13.8 nM in the test with Hela cells (Hela human cervical cancer cells, 72 h incubation, Cell Counting-Lite 2.0); 3.76 nM in the test with NCI-N87 cells (NCI-N87 human gastric cancer cells, 72 h incubation, Cell Counting-Lite 2.0, read-out: IC50, inhibitory activity on NCI-N87 cell proliferation); 35.4 nM in the test with NCI-H358 cells (NCI-H358 human non-small cell lung cancer cells, 72 h incubation, Cell Counting-Lite 2.0, read-out: IC50, inhibitory activity on NCI-H358 cell proliferation).
